Experimental data: ChEMBL document CHEMBL1133876, “alpha-Ketocarboxylic acid-based inhibitors of protein tyrosine phosphatases” (Bioorg Med Chem Lett, 2001)

Experiments:
[1] = biological target: Tyrosine-protein phosphatase YopH (Yersinia enterocolitica) (UniProt P15273); assay: Inhibitory activity against Yersinia Protein-tyrosine phosphatase YopH
[2] = biological target: Tyrosine-protein phosphatase YopH (Yersinia enterocolitica) (UniProt P15273); assay: as above; remark: listed apart in the source

Sequence of Tyrosine-protein phosphatase YopH (Yersinia enterocolitica) (P15273 whole entry, looked up): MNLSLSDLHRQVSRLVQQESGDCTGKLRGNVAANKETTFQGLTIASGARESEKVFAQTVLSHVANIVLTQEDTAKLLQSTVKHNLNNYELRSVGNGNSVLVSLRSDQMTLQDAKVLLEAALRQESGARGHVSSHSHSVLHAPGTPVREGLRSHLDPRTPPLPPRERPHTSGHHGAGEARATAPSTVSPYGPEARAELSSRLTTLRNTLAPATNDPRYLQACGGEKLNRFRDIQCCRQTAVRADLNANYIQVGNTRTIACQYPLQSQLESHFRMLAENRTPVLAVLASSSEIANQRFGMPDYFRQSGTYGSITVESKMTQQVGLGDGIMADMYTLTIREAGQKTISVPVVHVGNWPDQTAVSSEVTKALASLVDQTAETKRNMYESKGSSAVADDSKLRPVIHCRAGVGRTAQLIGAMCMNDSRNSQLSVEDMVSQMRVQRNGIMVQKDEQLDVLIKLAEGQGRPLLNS

## O=C(O)[C@H](O)c1ccccc1
[1]
  IC50: 5500 µM

## O=C(O)C(=O)c1cccs1
[1]
  IC50: 950 µM

## O=C(O)C(=O)c1ccco1
[2]
  Ki: 79 µM

## O=C(O)C(=O)c1ccccc1C(=O)O
[1]
  IC50: 1500 µM

## COc1ccc(C(=O)C(=O)O)cc1OC
[1]
  IC50: 1700 µM

## O=C(O)C(O)c1ccc2ccccc2c1 (stereo not drawn)
[1]
  IC50: 3300 µM

## COc1ccc(C(=O)C(=O)O)cc1
[1]
  IC50: 150 µM

## O=C(O)C(=O)c1c[nH]c2ccccc12
[1]
  IC50: 390 µM

## O=C(O)C(O)c1ccco1 (stereo not drawn)
[1]
  IC50: 27 µM

## COc1ccc(C(O)C(=O)O)cc1 (stereo not drawn)
[1]
  IC50: 5700 µM

## COC(=O)c1ccc(C(=O)C(=O)O)cc1
[1]
  IC50: 2300 µM

## O=C(O)[C@@H](O)c1ccccc1
[1]
  IC50: 4900 µM

## O=C(O)C(=O)c1c(F)c(F)c(F)c(F)c1F
[1]
  IC50: 790 µM

## O=P(O)(O)C(F)(F)c1ccc2ccccc2c1
[2]
  Ki: 179 µM

## O=C(O)C(=O)c1ccc([N+](=O)[O-])cc1
[1]
  IC50: 2700 µM

## O=C(O)C(=O)c1ccc2ccccc2c1
[1]
  IC50: 190 µM

## O=C(O)Cc1ccc2ccccc2c1
[1]
  IC50: 3500 µM

## O=C(O)C(=O)c1ccccc1 [BENZOYL FORMIC ACID]
[1]
  IC50: 2700 µM
